Reference: patent publication US20220057377A1, “ANALYTICAL METHOD FOR DETERMINATION OF IN VITRO DRUG RELEASE PROFILE FROM MICRONEEDLE PATCHES” (ZOSANO PHARMA CORPORATION, priority 2020, published 2022)
In brackets after ≈: the same amount, converted by molar mass. Several values for one entry are separate records, joined by “and”; a condition that tells them apart may be missing. Equal entries are not always repeated. Where two headings read alike, the source gives them in different places.

Legend:
[1] = Solubility of zolmitriptan at room temperature in PBS, water and IPA (in-house); format: physicochemical
Description: The solubility of zolmitriptan at room temperature in phosphate buffer saline (PBS), water, and isopropyl alcohol (IPA) were evaluated in-house. Zolmitriptan API was added into 200 mL of water, 10 mM phosphate buffer saline (PBS) at pH 7.4, and IPA until saturated. The solutions were then mixed at room temperature by stir bar overnight. Saturated solutions at 2 and 24 hours were filtered and analyzed for drug concentration by HPLC.

Sink condition = format: physicochemical
Description: The sink condition is defined as having a volume of medium at least three times that required to form a saturated solution of drug substance. […] The microneedle patch is coated with a specific amount (mg) of the bioactive agent and is intended to deliver a certain percentage of the drug. Based on the data from the solubility study described above, the sink condition can be met by various media.
The M207 patch is coated with 1.9 mg of zolmitriptan and is intended to deliver 100% of the drug. The mean drug content specification is 90.0%-110.0% of 1.9 mg. Based on the data from the solubility study, the sink condition was met for both the water and 10 mM PBS medium when applying volume of release medium of >6 mL. This is greater than three times the saturated solution in PBS (˜1.6 mL) for 1.9 mg of zolmitriptan released from the M207 patch.

[2] = Stability of zolmitriptan in 10 mM PBS release media; format: physicochemical
Description: In order for the drug to have fully released from the patches, a complete release time of 22 hours was noted. Therefore, stability of zolmitriptan in the release medium was evaluated for up to 24 hours.

[3] = Sample solution stability at 2-8° C.; format: physicochemical
Description: Sample solutions containing the released drug after the drug release tests were stored at 2-8° C. for a few days and injected to check the stability of the solution. Six sample solutions from each time points were aliquoted from release test tube and stored in refrigerator at 2-8 C for 15 days before being analyzed by HPLC. […] For the solution concentration is close to 1×-5× of the quantitation limit, 85%-115% recovery from fresh sample is considered reasonable.

[4] = cited from earlier work

CN(C)CCc1c[nH]c2ccc(C[C@H]3COC(=O)N3)cc12 [zolmitriptan]
solubility ([1]; 10 mM PBS, pH 7.4, aqueous buffer, thermodynamic from solid): ~1200 µg/mL (≈ 4.18 mM) | Zolmitriptan Concentration (saturated solution) ([1]; 10 mM PBS, pH 7.4, mixed 24 hours, room temperature): 1213.19 µg/mL | solubility thermodynamic at 2 h ([1]; 10 mM phosphate buffer saline, aqueous buffer, thermodynamic from solid, 10 mM PBS, pH 7.4, mixed 2 hours, room temperature, read-out: Zolmitriptan Concentration (saturated solution)): 1240 µg/mL (≈ 4.3 mM) | Zolmitriptan Concentration (saturated solution) ([1]; 100% IPA, mixed 2 hours, room temperature): 1691.82 µg/mL | Zolmitriptan Concentration (saturated solution) ([1]; HPLC grade Water, mixed 2 hours, room temperature): 944.05 µg/mL | Zolmitriptan Concentration (saturated solution) ([1]; HPLC grade Water, mixed 24 hours, room temperature): 1061.33 µg/mL | solubility ([1]; isopropyl alcohol (IPA), organic solvent or mixture, thermodynamic from solid): ~1700 µg/mL (≈ 5.92 mM) | solubility ([1]; water, thermodynamic from solid): ~1000 µg/mL (≈ 3.48 mM) | volume of saturated solution in PBS (Sink condition; for 1.9 mg of zolmitriptan released from the M207 patch): ~1.6 mL | volume of release medium at which sink condition was met (Sink condition; water and 10 mM PBS medium, 1.9 mg zolmitriptan): > 6 mL | After 24 hours at 32° C. Concentration ([2]; T0 Concentration 0.49 μg/mL): 0.50 µg/mL | After 24 hours at 32° C. Concentration ([2]; T0 Concentration 5.00 μg/mL): 5.02 µg/mL | After 24 hours at 32° C. Concentration ([2]; T0 Concentration 335.94 μg/mL): 335.94 µg/mL | stability in release media ([2]; up to 24 hours at 32° C.): remained stable | Drug Amount ([3]; T = 15 days at 2-8 C, 1 hour release time point, Average of 6): 0.22 mg | Drug Amount ([3]; T = 15 days at 2-8 C, 1 hour release time point, individual sample): 0.22 mg and 0.20 mg (2×) and 0.25 mg and 0.23 mg and 0.21 mg | Drug Amount ([3]; T = 15 days at 2-8 C, 2 hours release time point, Average of 6): 0.33 mg | Drug Amount ([3]; T = 15 days at 2-8 C, 2 hours release time point, individual sample): 0.33 mg (3×) and 0.35 mg and 0.32 mg (2×) | Drug Amount ([3]; T = 15 days at 2-8 C, 3 hours release time point, Average of 6): 0.29 mg | Drug Amount ([3]; T = 15 days at 2-8 C, 3 hours release time point, individual sample): 0.29 mg (2×) and 0.31 mg and 0.30 mg and 0.26 mg (2×) | Drug Amount ([3]; T = 15 days at 2-8 C, 5 hours release time point, Average of 6): 0.42 mg | Drug Amount ([3]; T = 15 days at 2-8 C, 5 hours release time point, individual sample): 0.41 mg and 0.48 mg and 0.44 mg and 0.36 mg and 0.42 mg and 0.38 mg | Drug Amount ([3]; T = 15 days at 2-8 C, 12 hours release time point, Average of 6): 0.63 mg | Drug Amount ([3]; T = 15 days at 2-8 C, 12 hours release time point, individual sample): 0.60 mg and 0.83 mg and 0.76 mg and 0.46 mg and 0.64 mg and 0.51 mg | Drug Amount ([3]; T = 15 days at 2-8 C, 22 hours release time point, Average of 6): 0.18 mg | Drug Amount ([3]; T = 15 days at 2-8 C, 22 hours release time point, individual sample): 0.15 mg and 0.28 mg and 0.25 mg and 0.10 mg and 0.17 mg and 0.12 mg | Drug Amount ([3]; Time Zero, 1 hour release time point, Average of 6): 0.21 mg | Drug Amount ([3]; Time Zero, 2 hours release time point, Average of 6): 0.33 mg | Drug Amount ([3]; Time Zero, 3 hours release time point, Average of 6): 0.28 mg | Drug Amount ([3]; Time Zero, 5 hours release time point, Average of 6): 0.41 mg | Drug Amount ([3]; Time Zero, 12 hours release time point, Average of 6): 0.63 mg | Drug Amount ([3]; Time Zero, 22 hours release time point, Average of 6): 0.17 mg | Drug Amount ([3]; Time Zero, sample solution of 1 hour release time point, individual sample): 0.21 mg and 0.2 mg (2×) and 0.19 mg and 0.24 mg and 0.22 mg | Drug Amount ([3]; Time Zero, sample solution of 2 hours release time point, individual sample): 0.33 mg (2×) and 0.34 mg and 0.32 mg (2×) and 0.31 mg | Drug Amount ([3]; Time Zero, sample solution of 3 hours release time point, individual sample): 0.28 mg (3×) and 0.3 mg and 0.26 mg (2×) | Drug Amount ([3]; Time Zero, sample solution of 5 hours release time point, individual sample): 0.41 mg and 0.48 mg and 0.43 mg and 0.36 mg and 0.42 mg and 0.37 mg | Drug Amount ([3]; Time Zero, sample solution of 12 hours release time point, individual sample): 0.59 mg and 0.85 mg and 0.75 mg and 0.45 mg and 0.63 mg and 0.51 mg | Drug Amount ([3]; Time Zero, sample solution of 22 hours release time point, individual sample): 0.15 mg and 0.27 mg and 0.24 mg and 0.09 mg and 0.17 mg and 0.12 mg | volume of solution in which each gram of solute dissolved ([4]; aqueous solution, pH range 4-14): ~10,000 mL | Approximate volume of solvent in mL per gram of solute ([4]; pH 1): From 10 to 30 mL per gram of solute | Descriptive Term (solubility) ([4]; pH 1): Soluble | Approximate volume of solvent in mL per gram of solute ([4]; pH 2): From 100 to 500 mL per gram of solute | Descriptive Term (solubility) ([4]; pH 2): Slightly soluble | Approximate volume of solvent in mL per gram of solute ([4]; pH 3): More than 10,000 mL per gram of solute | Descriptive Term (solubility) ([4]; pH 3): Practically insoluble | Approximate volume of solvent in mL per gram of solute ([4]; pH 4): More than 10,000 mL per gram of solute | Descriptive Term (solubility) ([4]; pH 4): Practically insoluble | Approximate volume of solvent in mL per gram of solute ([4]; pH 7): More than 10,000 mL per gram of solute | Descriptive Term (solubility) ([4]; pH 7): Practically insoluble | Approximate volume of solvent in mL per gram of solute ([4]; pH 14): More than 10,000 mL per gram of solute | Descriptive Term (solubility) ([4]; pH 14): Practically insoluble | solubility in aqueous solution (descriptive) ([4]; pH range 4-14): slightly soluble to very slightly soluble
